According to patent US20180246095A1, “COMPOSITIONS AND METHODS FOR DIAGNOSING AND TREATING LYME DISEASE” (priority 2015, published 2018):

System: B. burgdorferi B31
Assay: RNA-Seq gene expression profile of B. burgdorferi persisters that survived antibiotic treatment, compared with drug free control
Type: cell-based, Borrelia burgdorferi
Experimental: RNA Sequencing (RNA-Seq) was performed to determine the gene expression profile of B. burgdorferi persisters that survived antibiotic treatment using next generation sequencing to shed light on the mechanisms of B. burgdorferi persistence. B. burgdorferi B31 cultures were grown for 5 days to 1×10^7 spirochetes/ml in BSK-H medium followed by treatment with 50 μg/ml doxycycline or 50 μg/ml amoxicillin for 6 days. Triplicate biological samples were used for each group. The total RNA was extracted and ribosomal RNA was removed prior to preparation of cDNA libraries for Illumina sequencing. […] The RNA-Seq data was analyzed by BLAST analysis and mapped to KEGG pathways.

CC1(C)S[C@@H]2[C@H](NC(=O)[C@H](N)c3ccc(O)cc3)C(=O)N2[C@H]1C(=O)O [Amo]
Expression BB_U05 (gene BB_U05, PF-32 protein): 0 | Expression BB_U06 (gene BB_U06, plasmid partition protein): 0 | Expression BB_U07 (gene BB_U07, protein BBC01): 0 | Expression BB_U08 (gene BB_U08, SUA5 subfamily protein): 0 | Expression BB_U09 (gene BB_U09, TM2 family protein): 0 | Expression BB_U10 (gene BB_U10, protein BBC01): 0 | Expression BB_U11 (gene BB_U11, Sua5/YciO/YrdC/YwlC family protein): 0 | Expression BB_t19 (gene BB_t19, Ser tRNA): 7 | Expression BB_t26 (gene BB_t26, Arg tRNA): 0 | Expression BB_t27 (gene BB_t27, Leu tRNA): 2 | Expression BB_L35 (gene bdrO BB_L35, protein BdrO): 0 | Expression BB_N34 (gene bdrQ BB_N34, BdrQ): 1 | Expression BB_Q34 (gene bdrW BB_Q34, protein BdrW protein): 1 | Expression BB_L23 (gene blyA BB_L23, holin protein): 0 | Expression BB_L24 (gene blyB BB_L24, holin protein): 0 | Expression BB_L36 (gene bppA BB_L36, protein BppA): 0 | Expression BB_L37 (gene bppB BB_L37, protein BppB): 1 | Expression BB_Q47 (gene erpX BB_Q47, protein ErpX): 0 | Expression BB_L28 (gene mlpH BB_L28, lipoprotein): 1 | Expression BB_t16 (gene tRNA-Arg-3 BB_t16, Arg tRNA): 3 | Expression BB_t08 (gene tRNA-His-1 BB_t08, His tRNA): 0 | Expression BB_t07 (gene tRNA-Lys-2 BB_t07, Lys tRNA): 0 | Expression BB_t14 (gene tRNA-Thr-2 BB_t14, Thr tRNA): 0 | Expression BB_t03 (gene tRNA-Trp-1 BB_t03, Trp tRNA): 1 | Expression BB_I16 (gene vraA BB_I16, repetitive antigen A): 0 | Expression BB_0368 (glycerol-3-phosphate dehydrogenase): 95 | Expression BB_0185 (glycoprotease family protein): 50 | Expression blyB BB_R24 (hemolysin accessory protein): 0 | Expression blyA BB_M23 (holin protein): 0 | Expression blyA BB_N23 (holin protein): 50 | Expression blyA BB_P23 (holin protein): 64 | Expression blyA BB_S23 (holin protein): 0 | Expression blyB BB_N24 (holin protein): 0 | Expression blyB BB_S24 (holin protein): 0 | Expression BB_0024 (hypothetical protein): 390 | Expression BB_0029 (hypothetical protein): 114 | Expression BB_0044 (hypothetical protein): 0 | Expression BB_0102 (hypothetical protein): 53 | Expression BB_0162 (hypothetical protein): 401 | Expression BB_0238 (hypothetical protein): 26 | Expression BB_0242 (hypothetical protein): 2 | Expression BB_0252 (hypothetical protein): 497 | Expression BB_0308 (hypothetical protein): 0 | Expression BB_0322 (hypothetical protein): 1 | Expression BB_0331 (hypothetical protein): 5 | Expression BB_0336 (hypothetical protein): 61 | Expression BB_0352 (hypothetical protein): 66 | Expression BB_0367 (hypothetical protein): 176 | Expression BB_0373 (hypothetical protein): 4 | Expression BB_0378 (hypothetical protein): 129 | Expression BB_0428 (hypothetical protein): 627 | Expression BB_0525 (hypothetical protein): 73 | Expression BB_0549 (hypothetical protein): 0 | Expression BB_0576 (hypothetical protein): 140 | Expression BB_0646 (hypothetical protein): 444 | Expression BB_0663 (hypothetical protein): 533 | Expression BB_0673 (hypothetical protein): 15 | Expression BB_0707 (hypothetical protein): 35 | Expression BB_0739 (hypothetical protein): 51 | Expression BB_0799 (hypothetical protein): 2 | Expression BB_0824 (hypothetical protein): 98 | Expression BB_0838a (hypothetical protein): 4 | Expression BB_A09 (hypothetical protein): 50 | Expression BB_A13 (hypothetical protein): 256 | Expression BB_A61 (hypothetical protein): 133 | Expression BB_D22 (hypothetical protein): 5 | Expression BB_D24 (hypothetical protein): 0 | Expression BB_D0027 (hypothetical protein): 0 | Expression BB_G33 (hypothetical protein): 13 | Expression BB_G34 (hypothetical protein): 439 | Expression BB_H05 (hypothetical protein): 23 | Expression BB_H27 (hypothetical protein): 4 | Expression BB_J13 (hypothetical protein): 5 | Expression BB_J19 (hypothetical protein): 3 | Expression BB_J24 (hypothetical protein): 0 | Expression BB_J46 (hypothetical protein): 17 | Expression BB_J47 (hypothetical protein): 69 | Expression BB_J0056 (hypothetical protein): 13 | Expression BB_L19 (hypothetical protein): 24 | Expression BB_L20 (hypothetical protein): 22 | Expression BB_L25 (hypothetical protein): 13 | Expression BB_L26 (hypothetical protein): 1 | Expression BB_L41 (hypothetical protein): 0 | Expression BB_M12 (hypothetical protein): 0 | Expression BB_M13 (hypothetical protein): 0 | Expression BB_M14 (hypothetical protein): 0 | Expression BB_M15 (hypothetical protein): 0 | Expression BB_M17 (hypothetical protein): 0
